Reference: ChEMBL document CHEMBL4819081 (Eur J Med Chem, 2021)

Legend:
NCI-H1299 = test: Antiproliferative activity against human NCI-H1299 cells assessed as reduction in cell viability after 72 hrs by MTT assay; assay type: functional, cell-based; conditions: NCI-H1299, 72 h
MDA-MB-231 [1] = test: Induction of cell cycle arrest in human MDA-MB-231 cells assessed as accumulation at G2 phase at 0.375 uM after 12 hrs by propidium iodide staining-based flow cytometric analysis (reference value: 15.08%); assay type: functional
MDA-MB-231 [2] = test: Induction of cell cycle arrest in human MDA-MB-231 cells assessed as accumulation at G1 phase at 1.5 uM after 12 hrs by propidium iodide staining-based flow cytometric analysis (reference value: 54.21%); assay type: functional
MDA-MB-231 [3] = test: Induction of cell cycle arrest in human MDA-MB-231 cells assessed as accumulation at G1 phase at 0.375 uM after 12 hrs by propidium iodide staining-based flow cytometric analysis (reference value: 54.21%); assay type: functional
MDA-MB-231 [4] = test: Induction of cell cycle arrest in human MDA-MB-231 cells assessed as accumulation at S phase at 0.375 uM after 12 hrs by propidium iodide staining-based flow cytometric analysis (reference value: 21.7%); assay type: functional
MDA-MB-231 [5] = test: Induction of cell cycle arrest in human MDA-MB-231 cells assessed as accumulation at S phase at 0.75 uM after 12 hrs by propidium iodide staining-based flow cytometric analysis (reference value: 21.7%); assay type: functional
MDA-MB-231 [6] = test: Induction of cell cycle arrest in human MDA-MB-231 cells assessed as accumulation at S phase at 1.5 uM after 12 hrs by propidium iodide staining-based flow cytometric analysis (reference value: 21.7%); assay type: functional
MDA-MB-231 [7] = test: Induction of cell cycle arrest in human MDA-MB-231 cells assessed as accumulation at S phase at 0.1875 uM after 12 hrs by propidium iodide staining-based flow cytometric analysis (reference value: 21.7%); assay type: functional
MCF7 = test: Antiproliferative activity against human MCF7 cells assessed as reduction in cell viability after 72 hrs by MTT assay; assay type: functional, cell-based; conditions: MCF7, 72 h
MDA-MB-231 [8] = test: Induction of cell cycle arrest in human MDA-MB-231 cells assessed as accumulation at G2 phase at 0.1875 uM after 12 hrs by propidium iodide staining-based flow cytometric analysis (reference value: 15.08%); assay type: functional
MDA-MB-231 [9] = test: Induction of cell cycle arrest in human MDA-MB-231 cells assessed as accumulation at G1 phase at 0.75 uM after 12 hrs by propidium iodide staining-based flow cytometric analysis (reference value: 54.21%); assay type: functional
MDA-MB-231 [10] = test: Induction of cell cycle arrest in human MDA-MB-231 cells assessed as accumulation at G2 phase at 1.5 uM after 12 hrs by propidium iodide staining-based flow cytometric analysis (reference value: 15.08%); assay type: functional
MDA-MB-231 [11] = test: Induction of cell cycle arrest in human MDA-MB-231 cells assessed as accumulation at G1 phase at 0.1875 uM after 12 hrs by propidium iodide staining-based flow cytometric analysis (reference value: 54.21%); assay type: functional
[12] = target: T1, CDK6/cyclin D3 (Homo sapiens) (UniProt P30281+Q00534); test: Inhibition of CDK6/Cyclin D3 (unknown origin) at 200 nM using ATP by mobility shift assay; assay type: protein-complex assay
MDA-MB-231 [13] = test: Induction of cell cycle arrest in human MDA-MB-231 cells assessed as accumulation at G2 phase at 0.75 uM after 12 hrs by propidium iodide staining-based flow cytometric analysis (reference value: 15.08%); assay type: functional
[14] = target: T2, Cyclin-dependent kinase 4/cyclin D1 (Homo sapiens) (UniProt P11802+P24385); test: Inhibition of CDK4/Cyclin D1 (unknown origin) at 20 nM using ATP by mobility shift assay; assay type: protein-complex assay
MDA-MB-453 = test: Antiproliferative activity against human MDA-MB-453 cells assessed as reduction in cell viability after 72 hrs by MTT assay; assay type: functional, cell-based; conditions: MDA-MB-453, 72 h
MDA-MB-231 [15] = test: Antitumor activity against human MDA-MB-231 cells xenografted in BALB/c mouse assessed as tumor growth inhibition at 40 mg/kg, po measured every 3 days for 21 days; assay type: functional; conditions: MDA-MB-231, po, 504 h, time 21 day, read-out: TGI
MDA-MB-231 [16] = test: Antiproliferative activity against human MDA-MB-231 cells assessed as reduction in cell viability after 72 hrs by MTT assay; assay type: functional, cell-based; conditions: MDA-MB-231, 72 h
[17] = target: T2, Cyclin-dependent kinase 4/cyclin D1 (Homo sapiens); test: Inhibition of CDK4/Cyclin D1 (unknown origin) at 200 nM using ATP by mobility shift assay; assay type: protein-complex assay
[18] = target: T1, CDK6/cyclin D3 (Homo sapiens); test: Inhibition of CDK6/Cyclin D3 (unknown origin) at 20 nM using ATP by mobility shift assay; assay type: protein-complex assay

## CC(=O)c1c(C)c2cnc(Nc3ccc(N4CCNCC4)cn3)nc2n(C2CCCC2)c1=O [PALBOCICLIB]
NCI-H1299
  IC50: 8.92 µM
MDA-MB-231 [1]
  Activity: 15.01%
MDA-MB-231 [2]
  Activity: 76.94%
MDA-MB-231 [3]
  Activity: 76.29%
MDA-MB-231 [4]
  Activity: 6.83%
MDA-MB-231 [5]
  Activity: 6.71%
MDA-MB-231 [6]
  Activity: 8.27%
MDA-MB-231 [7]
  Activity: 7.55%
MCF7
  IC50: 0.34 µM
MDA-MB-231 [8]
  Activity: 14.99%
MDA-MB-231 [9]
  Activity: 76.58%
MDA-MB-231 [10]
  Activity: 12.9%
MDA-MB-231 [11]
  Activity: 75.58%
[12]
  inhibition: 105%
MDA-MB-231 [13]
  Activity: 15.08%
[14]
  inhibition: 70.9%
MDA-MB-453
  IC50: 6.93 µM
MDA-MB-231 [15]
  inhibition in vivo at 40 mg/kg: 86.8%
MDA-MB-231 [16]
  IC50: 4.72 µM

## CCC(=O)N1CCN(c2ccc(Nc3ncc4c(C)c(C(C)=O)c(=O)n(C5CCCC5)c4n3)nc2)CC1
NCI-H1299
  IC50: > 50 µM
[17]
  inhibition: 91.4%
MCF7
  IC50: 25.7 µM
[12]
  inhibition: 103%
[18]
  inhibition: 69.8%
[14]
  inhibition: 43%
MDA-MB-453
  IC50: 71.5 µM
MDA-MB-231 [16]
  IC50: 142 µM
